Laboratory results published in article PMC10648204, “Discovery of Novel Biphenyl Carboxylic Acid Derivatives as Potent URAT1 Inhibitors” (Molecules, 2023).

What was measured:
human URAT1 = target: T1, human URAT1 (Homo sapiens, UniProt Q96S37); test: In vitro URAT1 inhibitory assay (14C-uric acid uptake in HEK293T cells expressing human URAT1); assay type: cell-based; conditions: HEK293-URAT1 cells, 14C-labeled uric acid substrate; for inhibition at 10 µM: HEK-293T, 10 μM compound, mean of three measurements
T1 construct: expressed in transfected cells; host or cells: HEK293T cells (ATCC CRL-11268)
T1 sequence (Q96S37 1-553): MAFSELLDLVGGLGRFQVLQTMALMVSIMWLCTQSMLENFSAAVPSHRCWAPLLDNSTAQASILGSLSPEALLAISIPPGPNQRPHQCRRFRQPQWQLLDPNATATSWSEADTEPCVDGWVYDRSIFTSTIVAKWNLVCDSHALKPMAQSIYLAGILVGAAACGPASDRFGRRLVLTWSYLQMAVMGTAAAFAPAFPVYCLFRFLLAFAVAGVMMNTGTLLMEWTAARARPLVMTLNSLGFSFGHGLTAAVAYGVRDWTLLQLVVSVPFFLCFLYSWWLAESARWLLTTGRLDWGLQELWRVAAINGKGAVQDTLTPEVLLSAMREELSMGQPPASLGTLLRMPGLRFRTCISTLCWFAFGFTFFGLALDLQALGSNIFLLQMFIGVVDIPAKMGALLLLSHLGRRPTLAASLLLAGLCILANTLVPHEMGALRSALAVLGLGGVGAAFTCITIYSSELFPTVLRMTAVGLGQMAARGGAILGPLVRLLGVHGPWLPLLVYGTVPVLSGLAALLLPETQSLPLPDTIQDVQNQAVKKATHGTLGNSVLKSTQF
Description: All the target compounds were evaluated for their URAT1 inhibitory activities in HEK293-URAT1 cells using ^14C-labeled uric acid as the substrate. […] The SAR exploration on series A compounds mainly focused on the hydrophobic component. […] For series B compounds, the ortho-substituted biphenyl carboxylic acid was initially kept, and various aromatic components were incorporated (B1–B25). […] Different substituents were introduced onto the 4-pyridyl (B15–B21).
In Vitro URAT1 Inhibitory Assay. A transient expression system of human URAT1 in HEK293T cells was constructed to measure ^14C-uric acid transport. […] The cell cryovials were removed from liquid nitrogen storage, and immediately placed on dry ice prior to thawing. […] The cell suspension was transferred into a 15 mL centrifuge tube, and 10 mL complete medium (DMEM +10% FBS +500 μg/mL G418 +1% P/S) was added. After centrifugation at 1000 rpm for 5 min, the supernatant was discarded, and cell precipitation was resuspended in 5 mL complete medium and transferred to a T75 culture flask. […] The uptake assay test could be carried out after cell culture adherent to the well in the 96-well plate. Then, the cells were washed with 200 µL/well of pre-warmed Cl^- free HBSS buffer, and all buffer was removed at the last washing. 50 µL/well of Cl^- free HBSS Buffer containing Uric acid [8-^14C] (2.5 μCi/mL) and samples were added to the cells, and incubated for 8 min. Then, the cells were washed three times with Cl^- free HBSS Buffer and all buffer was removed at the last washing. 50 µL/well of lysis buffer (100 mM NaOH) was added to the lysate cells and stirred at 900 rpm for 5 min. 150 µL/well MicroScint™-40 cocktail was added and agitated at 900 rpm for 5 min. Finally, the 96-plate was counted in a MicroBeta2 (PerkinElmer). The data were analyzed and IC50 values was calculated with GraphPad Prism 6 software.

Compound	IC50 (human URAT1) [nM]	inhibition at 10 µM (human URAT1) [%]	melting point [°C]
O=C(O)c1ccccc1-c1ccccc1C(=O)N1CCCc2ccccc21 [Compound A1]	930	89	
O=C(O)c1ccccc1-c1ccccc1C(=O)N1CCOc2ccccc21 [Compound A2]	3900	75	174 to 176
O=C(O)c1ccccc1-c1ccccc1C(=O)N1CCSc2ccccc21 [Compound A3]		78	193 to 195
O=C(O)c1ccccc1-c1ccccc1C(=O)N1CCc2ccccc21 [Compound A4]	4700	77	195 to 196
O=C(O)c1ccccc1-c1ccccc1C(=O)N1CCCCc2ccccc21 [Compound A5]		72	215 to 217
O=C(O)c1ccccc1-c1ccccc1C(=O)N1CCCc2ccc(Br)cc21 [Compound A6]	1100	84	231 to 233
O=C(O)c1ccccc1-c1ccccc1C(=O)N1CCCc2cc(Br)ccc21 [Compound A7]	1100	94	261 to 262
O=C(O)c1ccccc1-c1ccccc1C(=O)N1CCCc2c(Br)cccc21 [Compound A8]	1600	90	201 to 202
O=C(O)c1ccccc1-c1ccccc1C(=O)N1CCCc2ccc(Cl)cc21 [Compound A9]	2200	85	233 to 234
COc1ccc2c(c1)CCCN2C(=O)c1ccccc1-c1ccccc1C(=O)O [Compound A10]	1800	88	198 to 200
Cc1ccc2c(c1)CCCN2C(=O)c1ccccc1-c1ccccc1C(=O)O [Compound A11]	2100	91	220 to 222
O=C(O)c1ccccc1-c1ccccc1C(=O)N1CCCc2ccc(-c3ccc(F)cc3)cc21 [Compound A12]		29	245 to 246
O=C(O)c1ccccc1-c1ccccc1C(=O)N1CCCc2ccc(-c3ccncc3)cc21 [Compound A13]	1500	86	266 to 268
COc1cccc(-c2ccc3c(c2)N(C(=O)c2ccccc2-c2ccccc2C(=O)O)CCC3)c1 [Compound A14]		58	177 to 179
O=C(O)c1ccccc1-c1ccccc1C(=O)N1CCc2ccccc2C1 [Compound A15]		25	171 to 173
CN(C(=O)c1ccccc1-c1ccccc1C(=O)O)c1ccccc1 [Compound A16]		13	169 to 172
O=C(O)c1ccccc1-c1ccccc1C(=O)NCc1ccncc1 [Compound A17]		< 10	118 to 120
O=C(O)c1ccccc1-c1ccccc1C(=O)Nc1ccncc1 [Compound A18]		11	190 to 191
O=C(O)c1ccccc1-c1ccccc1C(=O)Nc1ccnc2ccccc12 [Compound A19]		24	176 to 178
O=C(O)c1ccccc1-c1ccc(C(=O)N2CCCc3ccccc32)cc1 [Compound A20]		< 10	165 to 167
O=C(O)c1ccccc1-c1cccc(C(=O)N2CCCc3ccccc32)c1 [Compound A21]		< 10	100 to 102
O=C(O)c1ccccc1-c1ccccc1-c1nc(-c2ccc(F)cc2)no1 [Compound B1]		56	150 to 153
O=C(O)c1ccccc1-c1ccccc1-c1nc(-c2ccc(C(F)(F)F)cc2)no1 [Compound B2]		39	173 to 175
O=C(O)c1ccccc1-c1ccccc1-c1nc(-c2ccc(Cl)cc2)no1 [Compound B3]		55	154 to 156

Compound	IC50 (human URAT1) [nM]	inhibition at 10 µM (human URAT1) [%]	melting point [°C]
O=C(O)c1ccccc1-c1ccccc1-c1nc(-c2ccc(Br)cc2)no1 [Compound B4]		61	148 to 150
COc1ccc(-c2noc(-c3ccccc3-c3ccccc3C(=O)O)n2)cc1 [Compound B5]		68	154 to 157
Cc1ccc(-c2noc(-c3ccccc3-c3ccccc3C(=O)O)n2)cc1 [Compound B6]		45	151 to 153
O=C(O)c1ccccc1-c1ccccc1-c1nc(-c2cccc(Br)c2)no1 [Compound B7]		44	119 to 121
O=C(O)c1ccccc1-c1ccccc1-c1nc(-c2ccco2)no1 [Compound B8]		56	171 to 175
O=C(O)c1ccccc1-c1ccccc1-c1nc(-c2cccs2)no1 [Compound B9]		68	140 to 142
O=C(O)c1ccccc1-c1ccccc1-c1nc(-c2ccsc2)no1 [Compound B10]		69	146 to 148
O=C(O)c1ccccc1-c1ccccc1-c1nc(-c2ccncn2)no1 [Compound B11]		30	167 to 169
O=C(O)c1ccccc1-c1ccccc1-c1nc(-c2ccccn2)no1 [Compound B12]		27	190 to 193
O=C(O)c1ccccc1-c1ccccc1-c1nc(-c2cccnc2)no1 [Compound B13]		64	210 to 212
O=C(O)c1ccccc1-c1ccccc1-c1nc(-c2ccncc2)no1 [Compound B14]	1800	88	188 to 191
O=C(O)c1ccccc1-c1ccccc1-c1nc(-c2ccnc(Br)c2)no1 [Compound B15]	250	97	165 to 168
O=C(O)c1ccccc1-c1ccccc1-c1nc(-c2ccnc(Cl)c2)no1 [Compound B16]	270	97	145 to 147
O=C(O)c1ccccc1-c1ccccc1-c1nc(-c2ccnc(F)c2)no1 [Compound B17]	980	90	98 to 100
Cc1cc(-c2noc(-c3ccccc3-c3ccccc3C(=O)O)n2)ccn1 [Compound B18]	280	97	228 to 230
COc1cc(-c2noc(-c3ccccc3-c3ccccc3C(=O)O)n2)ccn1 [Compound B19]	420	96	154 to 156
Cc1cc(-c2noc(-c3ccccc3-c3ccccc3C(=O)O)n2)cc(C)n1 [Compound B20]	3100	76	214 to 216
O=C(O)c1ccccc1-c1ccccc1-c1nc(-c2ccncc2Cl)no1 [Compound B21]	170	98	
O=C(O)c1ccccc1-c1ccccc1-c1nc(-c2ccnc3ccccc23)no1 [Compound B22]	1100	89	258 to 259
O=C(O)c1ccccc1-c1ccccc1-c1nc(-c2cnc3ccccc3c2)no1 [Compound B23]	6100	74	236 to 238
O=C(O)c1ccccc1-c1ccccc1-c1nc(-c2ccc3ncccc3c2)no1 [Compound B24]		67	264 to 266
COc1ccc(-c2noc(-c3ccccc3-c3ccccc3C(=O)O)n2)c2ccccc12 [Compound B25]		42	169 to 171
O=C(O)CCNC(=O)c1ccccc1-c1ccccc1-c1nc(-c2ccncc2Cl)no1 [Compound B26]		35	240 to 242
